“And” between values parts separate entries of the source, which are not always exact repeats. Identical values can stand only once.
System: BDF1 mice, Adenocarcinoma 755 s.c., tumor weight T/C
Assay: NCI In Vivo Anticancer Drug Screen. Data for tumor model Adenocarcinoma 755 (subcutaneous) in B6D2F1 (BDF1) mice
Details: endpoint: mean tumor weight, higher = larger tumour
How it was run: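 Transplantable tumor implanted; mice dosed with compound or vehicle; survival or tumor size recorded; ratio of treated to vehicle control reported.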

[1] = dose: 2.5 mg/kg/injection, schedule: Q01DX011 (ip), vehicle: carboxymethylcellulose (CMC)
[2] = dose: 5.0 mg/kg/injection, schedule: Q01DX011 (ip), vehicle: carboxymethylcellulose (CMC)
[3] = dose: 25.0 mg/kg/injection, schedule: Q01DX011 (ip), vehicle: carboxymethylcellulose (CMC)
[4] = dose: 75.0 mg/kg/injection, schedule: Q01DX011 (ip), vehicle: methylcellulose (MC)

Q: Which T/C [1] does the source give for `CCCCn1cnc2c(=S)nc[nH]c21` here?
A: The T/C was 62 % of control.

Q: What about the T/C [2] of the same compound?
A: Its T/C is 25 % of control.

Q: And the T/C (dose: 5.0 mg/kg/injection, schedule: Q01DX011 (ip), vehicle: olive oil, sesame oil, peanut oil)?
A: Its T/C is 41 % of control.

Q: And the T/C (dose: 5.0 mg/kg/injection, schedule: Q#A X022 (ip), vehicle: carboxymethylcellulose (CMC))?
A: The T/C was 4 % of control.

Q: What about the T/C (dose: 8.0 mg/kg/injection, schedule: Q01DX011 (ip), vehicle: carboxymethylcellulose (CMC)) of the same compound?
A: Its T/C is 32 % of control.

Q: What about the T/C (dose: 10.0 mg/kg/injection, schedule: Q01DX006 (iv), vehicle: carboxymethylcellulose (CMC)) of the same compound?
A: Its T/C is 20 % of control.

Q: And the T/C (dose: 10.0 mg/kg/injection, schedule: Q01DX011 (im), vehicle: carboxymethylcellulose (CMC))?
A: The T/C was 5 % of control.

Q: And the T/C (dose: 10.0 mg/kg/injection, schedule: Q01DX011 (ip), vehicle: carboxymethylcellulose (CMC))?
A: Its T/C is 2 % of control.

Q: What about the T/C (dose: 10.0 mg/kg/injection, schedule: Q01DX011 (ip), vehicle: olive oil, sesame oil, peanut oil) of the same compound?
A: The T/C was 14 % of control.

Q: And the T/C (dose: 10.0 mg/kg/injection, schedule: Q#A X022 (ip), vehicle: carboxymethylcellulose (CMC))?
A: The T/C was 1 % of control.

Q: And the T/C (dose: 16.0 mg/kg/injection, schedule: Q01DX011 (ip), vehicle: carboxymethylcellulose (CMC))?
A: The T/C was 8 % of control.

Q: And the T/C (dose: 20.0 mg/kg/injection, schedule: Q01DX006 (iv), vehicle: carboxymethylcellulose (CMC))?
A: The T/C was 6 % of control.

Q: What about the T/C (dose: 20.0 mg/kg/injection, schedule: Q01DX011 (im), vehicle: carboxymethylcellulose (CMC)) of the same compound?
A: Its T/C is 2 % of control.

Q: What about the T/C (dose: 20.0 mg/kg/injection, schedule: Q01DX011 (ip), vehicle: carboxymethylcellulose (CMC)) of the same compound?
A: The T/C was 1 % of control.

Q: What about the T/C (dose: 20.0 mg/kg/injection, schedule: Q#A X022 (ip), vehicle: carboxymethylcellulose (CMC)) of the same compound?
A: The T/C was 2 % of control.

Q: And the T/C [3]?
A: The T/C was 6 % of control.

Q: And the T/C (dose: 27.0 mg/kg/injection, schedule: Q01DX001 (ip), vehicle: carboxymethylcellulose (CMC))?
A: Its T/C is 73 % of control.

Q: What about the T/C (dose: 32.0 mg/kg/injection, schedule: Q01DX011 (ip), vehicle: carboxymethylcellulose (CMC)) of the same compound?
A: The T/C was 3 % of control.

Q: What about the T/C (dose: 40.0 mg/kg/injection, schedule: Q01DX006 (iv), vehicle: carboxymethylcellulose (CMC)) of the same compound?
A: The T/C was 1 % of control.

Q: What about the T/C (dose: 40.0 mg/kg/injection, schedule: Q01DX011 (im), vehicle: carboxymethylcellulose (CMC)) of the same compound?
A: The T/C was 2 % of control.

Q: What about the T/C (dose: 40.0 mg/kg/injection, schedule: Q#A X022 (ip), vehicle: carboxymethylcellulose (CMC)) of the same compound?
A: The T/C was 1 % of control.

Q: What about the T/C (dose: 54.0 mg/kg/injection, schedule: Q01DX001 (ip), vehicle: carboxymethylcellulose (CMC)) of the same compound?
A: Its T/C is 59 % of control.

Q: And the T/C (dose: 64.0 mg/kg/injection, schedule: Q01DX011 (ip), vehicle: carboxymethylcellulose (CMC))?
A: Its T/C is 3 % of control.

Q: What about the T/C (dose: 75.0 mg/kg/injection, schedule: Q01DX011 (ip), vehicle: carboxymethylcellulose (CMC)) of the same compound?
A: Its T/C is 4 % of control.

Q: What about the T/C (dose: 107.0 mg/kg/injection, schedule: Q01DX001 (ip), vehicle: carboxymethylcellulose (CMC)) of the same compound?
A: The T/C was 8 % of control.

Q: What about the T/C (dose: 214.0 mg/kg/injection, schedule: Q01DX001 (ip), vehicle: carboxymethylcellulose (CMC)) of the same compound?
A: Its T/C is 5 % of control.

Q: What does the source list for `CC1(O)CCC2C3CCC4=CC(=O)CCC4C3CCC21C` (configuration not stated)?
A: T/C (dose: 50.0 mg/kg/injection, schedule: Q01DX011 (sc), vehicle: steriod suspending solution): 93 % of control; T/C (dose: 100.0 mg/kg/injection, schedule: Q01DX011 (sc), vehicle: steriod suspending solution): 76 % of control; T/C (dose: 200.0 mg/kg/injection, schedule: Q01DX011 (sc), vehicle: steriod suspending solution): 59 % of control; T/C (dose: 400.0 mg/kg/injection, schedule: Q01DX011 (sc), vehicle: steriod suspending solution): 51 % of control; T/C (dose: 500.0 mg/kg/injection, schedule: Q01DX011 (sc), vehicle: steriod suspending solution): 47 % of control; T/C (dose: 600.0 mg/kg/injection, schedule: Q01DX011 (sc), vehicle: steriod suspending solution): 38 % of control

Q: Which results are given for `Nc1nc(=S)c2[nH]cnc2[nH]1.[Cu+2]`?
A: T/C (dose: 0.62 mg/kg/injection, schedule: Q01DX011 (ip), vehicle: carboxymethylcellulose (CMC)): 98 % of control; T/C (dose: 1.25 mg/kg/injection, schedule: Q01DX011 (ip), vehicle: carboxymethylcellulose (CMC)): 83 % of control; T/C [1]: 105 % of control; T/C [2]: 59 % of control

Q: What does the source list for `O=c1[nH]c(=O)c2nc(Br)n(C3OC(CO)C(O)C3O)c2[nH]1` (configuration not stated)?
A: T/C (dose: 30.0 mg/kg/injection, schedule: Q01DX011 (ip), vehicle: carboxymethylcellulose (CMC)): 119 % of control; T/C (dose: 60.0 mg/kg/injection, schedule: Q01DX011 (ip), vehicle: carboxymethylcellulose (CMC)): 105 % of control; T/C (dose: 120.0 mg/kg/injection, schedule: Q01DX011 (ip), vehicle: carboxymethylcellulose (CMC)): 68 % of control; T/C (dose: 240.0 mg/kg/injection, schedule: Q01DX011 (ip), vehicle: carboxymethylcellulose (CMC)): 86 % of control

Q: `Nc1nc(SCc2ccc([N+](=O)[O-])cc2)c2ncn(C3OC(CO)C(O)C3O)c2n1` (configuration not stated) was tested. Which T/C (dose: 18.75 mg/kg/injection, schedule: Q01DX011 (ip), vehicle: methylcellulose (MC)) did it give?
A: Its T/C is 23 % of control.

Q: And the T/C (dose: 37.5 mg/kg/injection, schedule: Q01DX011 (ip), vehicle: methylcellulose (MC))?
A: The T/C was 20 % of control.

Q: And the T/C [4]?
A: Its T/C is 8 % of control.

Q: `O=c1[nH]c(=O)n(C2CC(O)C(CO)O2)cc1I` (configuration not stated) was tested. Which T/C (dose: 31.25 mg/kg/injection, schedule: Q01DX011 (ip), vehicle: carboxymethylcellulose (CMC)) did it give?
A: Its T/C is 62 % of control.

Q: What about the T/C (dose: 62.5 mg/kg/injection, schedule: Q01DX011 (ip), vehicle: carboxymethylcellulose (CMC)) of the same compound?
A: Its T/C is 65 % of control.

Q: What about the T/C (dose: 125.0 mg/kg/injection, schedule: Q01DX011 (ip), vehicle: carboxymethylcellulose (CMC)) of the same compound?
A: Its T/C is 28 % of control and 51 % of control.

Q: Which T/C (dose: 25.0 mg/kg/injection, schedule: Q01DX011 (ip), vehicle: methylcellulose (MC)) does the source give for `CS(=O)(=O)OCCC(=O)N1CCC(CCC2CCN(C(=O)CCOS(C)(=O)=O)CC2)CC1` here?
A: The T/C was 79 % of control.

Q: What about the T/C [4] of the same compound?
A: Its T/C is 63 % of control.

Q: What about the T/C (dose: 225.0 mg/kg/injection, schedule: Q01DX011 (ip), vehicle: methylcellulose (MC)) of the same compound?
A: Its T/C is 81 % of control.

Q: `CCCn1cnc2c(SCc3ccccc3F)nc(N)nc21` was tested. Which T/C (dose: 3.1 mg/kg/injection, schedule: Q01DX011 (ip), vehicle: methylcellulose (MC)) did it give?
A: The T/C was 22 % of control.

Q: And the T/C (dose: 6.25 mg/kg/injection, schedule: Q01DX011 (ip), vehicle: methylcellulose (MC))?
A: The T/C was 11 % of control.

Q: What about the T/C (dose: 12.5 mg/kg/injection, schedule: Q01DX011 (ip), vehicle: methylcellulose (MC)) of the same compound?
A: Its T/C is 1 % of control and 5 % of control.

Q: Which results are given for `Cn1cnc2c(C(F)(F)F)nc(Cl)nc21`?
A: T/C (dose: 30.0 mg/kg/injection, schedule: Q01DX011 (ip), vehicle: saline): 98 % of control; T/C (dose: 60.0 mg/kg/injection, schedule: Q01DX011 (ip), vehicle: saline): 91 % of control

Q: With `CC(C)CCn1cnc2c(SCC(=O)O)nc(N)nc21` as the compound, how does the T/C (dose: 20.0 mg/kg/injection, schedule: Q01DX011 (ip), vehicle: methylcellulose (MC)) read?
A: The T/C was 46 % of control.

Q: What about the T/C (dose: 65.0 mg/kg/injection, schedule: Q01DX011 (ip), vehicle: methylcellulose (MC)) of the same compound?
A: The T/C was 56 % of control.

Q: And the T/C (dose: 200.0 mg/kg/injection, schedule: Q01DX011 (ip), vehicle: methylcellulose (MC))?
A: Its T/C is 55 % of control.

Q: Which results are given for `Nc1nc(Cl)cc(Nc2ccc(CCO)cc2)n1`?
A: T/C (dose: 15.0 mg/kg/injection, schedule: Q01DX011 (ip), vehicle: methylcellulose (MC)): 101 % of control; T/C (dose: 62.0 mg/kg/injection, schedule: Q01DX011 (ip), vehicle: methylcellulose (MC)): 77 % of control; T/C (dose: 125.0 mg/kg/injection, schedule: Q01DX011 (ip), vehicle: methylcellulose (MC)): 102 % of control

Q: What does the source list for `CC(CNC(=O)CCOS(C)(=O)=O)CNC(=O)CCOS(C)(=O)=O`?
A: T/C (dose: 6.25 mg/kg/injection, schedule: Q01DX011 (ip), vehicle: carboxymethylcellulose (CMC)): 120 % of control; T/C (dose: 12.5 mg/kg/injection, schedule: Q01DX011 (ip), vehicle: carboxymethylcellulose (CMC)): 92 % of control; T/C (dose: 14.0 mg/kg/injection, schedule: Q01DX011 (ip), vehicle: carboxymethylcellulose (CMC)): 73 % of control; T/C [3]: 111 % of control; T/C (dose: 28.0 mg/kg/injection, schedule: Q01DX011 (ip), vehicle: carboxymethylcellulose (CMC)): 108 % of control; T/C (dose: 50.0 mg/kg/injection, schedule: Q01DX011 (ip), vehicle: carboxymethylcellulose (CMC)): 39 % of control; T/C (dose: 57.0 mg/kg/injection, schedule: Q01DX011 (ip), vehicle: carboxymethylcellulose (CMC)): 72 % of control; T/C (dose: 100.0 mg/kg/injection, schedule: Q01DX011 (ip), vehicle: carboxymethylcellulose (CMC)): 15 % of control; T/C (dose: 113.0 mg/kg/injection, schedule: Q01DX011 (ip), vehicle: carboxymethylcellulose (CMC)): 20 % of control and 36 % of control; T/C (dose: 200.0 mg/kg/injection, schedule: Q01DX011 (ip), vehicle: carboxymethylcellulose (CMC)): 2 % of control; T/C (dose: 225.0 mg/kg/injection, schedule: Q01DX011 (ip), vehicle: carboxymethylcellulose (CMC)): 4 % of control

Q: How did the T/C (dose: 12.0 mg/kg/injection, schedule: Q01DX011 (ip), vehicle: methylcellulose (MC)) turn out when `Nc1nc2c(nnn2C2OC(CO)C(O)C2O)c(=O)[nH]1` (configuration not stated) was run?
A: The T/C was 38 % of control.
